From patent US10160748B2 (AbbVie Inc., priority 2015, dated 2018)

biological target: TNFα trimer (Homo sapiens, UniProt P01375); assay: TNFα FP Competitive Binding Assay; conditions: FP binding assay; 20 nM TNFα trimer, 1 nM OregonGreen488 probe; read-out: TNF IC50
Procedure, shortened: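 Fluorescence polarization competition: 20 nM TNFα trimer with 1 nM fluorescein-labelled probe in HEPES/NaCl/EDTA/Triton X-100 buffer, compound in 12-point 1:3 dilutions (final top 338 μM or 100 μM). Incubated 18-24 h, background-subtracted mP read, variable-slope dose-response fitting.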

Sequence of TNFα trimer (P01375 77-233 limits assumed): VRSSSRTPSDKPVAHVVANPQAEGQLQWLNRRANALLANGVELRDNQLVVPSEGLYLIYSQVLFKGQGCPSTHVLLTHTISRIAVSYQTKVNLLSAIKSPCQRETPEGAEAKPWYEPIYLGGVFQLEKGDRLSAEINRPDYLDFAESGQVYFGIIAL

Compound	IC50 [nM]
C[C@@H]1CN(C(=O)CO)CCN1c1ncc(-c2ccc3c(=O)n(C)n(Cc4cc(CC#N)ccc4OC(F)F)c3c2)cn1 [Example 78, (R)-2-(4-(difluoromethoxy)-3-((6-(2-(4-(2-hydroxyacetyl)-2-methylpiperazin-1-yl)pyrimidin-5-yl)-2-methyl-3-oxo-2,3-dihydro-1H-indazol-1-yl)methyl)phenyl)acetonitrile]	< 1000
CC[C@@H]1CN(C(C)=O)CCN1c1ncc(-c2ccc3c(=O)n(C)n(Cc4cc(C)ccc4OC(F)F)c3c2)cn1 [Example 20.5]	< 1000
C[C@@H]1CN(c2ncc(-c3ccc4c(=O)n(C)n(Cc5ccccc5Cl)c4n3)cn2)CCN1C(=O)CO [Example 23.1]	< 1000
Cn1c(=O)c2ccc(-c3cnc(N4CCN5C(=O)NC[C@@H]5C4)nc3)cc2n1Cc1cc(CC#N)ccc1OC(F)F [Example 68, (R)-2-(4-(Difluoromethoxy)-3-((2-methyl-3-oxo-6-(2-(3-oxohexahydromidazo[1,5-a]pyrazin-7(1H)-yl)pyrimidin-5-yl)-2,3-dihydro-1H-indazol-1-yl)methyl)phenyl)acetonitrile]	< 1000
CC(c1ccccc1F)n1c2cc(-c3cnc(N4CCN(C(=O)CO)[C@H](C)C4)nc3)ccc2c(=O)n1C (stereo partly shown) [Example 28.3]	< 1000
Cn1c(=O)c2ccc(-c3cnc(C(C)(C)O)nc3)cc2n1Cc1cc(Cn2cncn2)ccc1OC(F)F [Example 104]	< 1000
CC(c1ccccc1)n1c2cc(-c3cnc(N4CCN(C(=O)CO)[C@H](C)C4)nc3)ccc2c(=O)n1C (stereo partly shown) [Example 28.2]	< 1000
Cc1ccc(OC(F)F)c(Cn2c3cc(-c4cnc(N5CCOCC5)nc4)ccc3c(=O)n2C)c1 [Example 1.18]	< 1000
Cc1ccc(OC(F)F)c(Cn2c3cc(C4=CCC(C(C)(C)O)OC4)c(F)cc3c(=O)n2C)c1 (stereo not shown) [Example #132, 1-(2-(Difluoromethoxy)-5-methylbenzyl)-5-fluoro-6-(6-(2-hydroxypropan-2-yl)-5,6-dihydro-2H-pyran-3-yl)-2-methyl-1H-indazol-3(2H)-one]	< 1000
CC(c1c(F)cccc1F)n1c2cc(-c3cnc(N4CCN(C(=O)CO)[C@H](C)C4)nc3)ccc2c(=O)n1C (stereo partly drawn) [Example 28.1, 1-(1-(2,6-Difluorophenyl)ethyl)-6-(2-((R)-4-(2-hydroxyacetyl)-3-methylpiperazin-1-yl)pyrimidin-5-yl)-2-methyl-1H-indazol-3(2H)-one]	< 1000
Cc1cc2c(=O)n(C)n(Cc3ccccc3OC(F)F)c2cc1-c1cnc(N2CCOCC2)nc1 [Example 13.1]	< 1000
[2H]C([2H])([2H])n1c(=O)c2ccc(-c3cnc(N4CCN(C(=O)CO)[C@H](C)C4)nc3)cc2n1Cc1cc(C)ccc1OC(F)F [Example 62, (R)-1-(2-(Difluoromethoxy)-5-methylbenzyl)-6-(2-(4-(2-hydroxyacetyl)-3-methylpiperazin-1-yl)pyrimidin-5-yl)-2-(methyl-d3)-1H-indazol-3(2H)-one]	< 1000
C[C@H](N)C(=O)OCc1ccc(OC(F)F)c(Cn2c3cc(-c4cnc(N5CCN6C(=O)OC[C@@H]6C5)nc4)ccc3c(=O)n2C)c1 [Example 21, (S)-4-(Difluoromethoxy)-3-((2-methyl-3-oxo-6-(2-((S)-3-oxotetrahydro-1H-oxazolo[3,4-a]pyrazin-7(3H)-yl)pyrimidin-5-yl)-2,3-dihydro-1H-indazol-1-yl)methyl)benzyl 2-aminopropanoate]	< 1000
Cc1ccc(OC(F)F)c(Cn2c3cc(-c4cnc(N5CCN(C(=O)CN)[C@@H](C)C5)nc4)ccc3c(=O)n2C)c1 [Example 14.7]	< 1000
COCc1ccc(OC(F)F)c(Cn2c3cc(-c4cnc(N5CCN(C(C)=O)CC5)nc4)ccc3c(=O)n2C)c1 [Example 90, 6-(2-(4-Acetylpiperazin-1-yl)pyrimidin-5-yl)-1-(2-(difluoromethoxy)-5-(methoxymethyl)benzyl)-2-methyl-1H-indazol-3(2H)-one]	1000 to 10000
CC(=O)N1CCN(c2ncc(-c3ccc4c(=O)n(C)n(Cc5cc(C)ccc5Cl)c4n3)cn2)C[C@H]1C [Example 18.3]	< 1000
Cn1c(=O)c2cc(F)c(-c3cnc(C(C)(C)O)nc3)cc2n1Cc1cc(Cn2cnnc2)ccc1OC(F)F [Example 26.5]	1000 to 10000
C[C@@H]1CN(C(=O)CO)CCN1c1ncc(-c2c(F)cc3c(=O)n(C)n(Cc4ccccc4OC(F)F)c3c2F)cn1 [Example 30]	< 1000
Cc1ccc(OC(F)F)c(Cn2c3cc(-c4cnc(N5CCN6C(=O)OC[C@H]6C5)nc4)ccc3c(=O)n2C)c1 [Example 22.12]	< 1000
C[C@@H]1CN(c2ncc(-c3nc4c(cc3F)c(=O)n(C)n4Cc3ccccc3OC(F)F)cn2)CCN1C(=O)CO [Example 24.11]	< 1000
Cc1ccc(CO)cc1Cn1c2cc(-c3cnc(N4CCOCC4)nc3)ccc2c(=O)n1C [Example 56, 1-(5-(Hydroxymethyl)-2-methylbenzyl)-2-methyl-6-(2-morpholinopyrimidin-5-yl)-1H-indazol-3(2H)-one]	1000 to 10000
COc1ncc(-c2ccc3c(=O)n(C)n(Cc4ccccc4OC(F)F)c3c2)cn1 [Example 5.4]	1000 to 10000
CC(=O)N1CCN(c2ncc(-c3ccc4c(=O)n(C)n(Cc5cc(C)ccc5OC(F)F)c4n3)cn2)C[C@H]1C [Example 18.2]	< 1000

Compound	IC50 [nM]
Cn1c(=O)c2ccc(-c3ccnc(N4CCOCC4)c3)cc2n1Cc1cccc(F)c1 [Example 11.1]	> 10000
Cn1c(=O)c2ccc(-c3cnc(N4CCN5C(=O)OC[C@@H]5C4)nc3)cc2n1Cc1ccccc1OC(F)F [Example 2.26]	< 1000
Cn1c(=O)c2ccc(-c3cnc(N4CCOCC4)nc3)nc2n1Cc1ccccc1OC(F)F [Example 15, 1-(2-(Difluoromethoxy)benzyl)-2-methyl-6-(2-morpholinopyrimidin-5-yl)-1H-pyrazolo[3,4-b]pyridin-3(2H)-one]	1000 to 10000
Cn1c(=O)c2ccc(-c3cnc(C(C)(C)O)nc3)cc2n1Cc1cn(Cc2ccnnc2)cc1C(F)(F)F [Example #128, 6-(2-(2-Hydroxypropan-2-yl)pyrimidin-5-yl)-2-methyl-1-((1-(pyridazin-4-ylmethyl)-4-(trifluoromethyl)-1H-pyrrol-3-yl)methyl)-1H-indazol-3(2H)-one]	1000 to 10000
Cn1c(=O)c2ccc(-c3cnc(N4CCN5C(=O)CCC5C4)nc3)cc2n1Cc1ccccc1OC(F)F (stereo not shown) [Example 2.23]	< 1000
COC[C@H]1CCCN1c1ncc(-c2ccc3c(=O)n(C)n(Cc4ccccc4OC(F)F)c3c2)cn1 [Example 2.2]	< 1000
CC(=O)N1CCN(c2ncc(-c3ccc4c(=O)n(C)n(Cc5nc(C)ccc5C(F)(F)F)c4c3)cn2)[C@H](C)C1 [Example 74, (R)-6-(2-(4-Acetyl-2-methylpiperazin-1-yl)pyrimidin-5-yl)-2-methyl-1-((6-methyl-3-(trifluoromethyl)pyridin-2-yl)methyl)-1H-indazol-3(2H)-one]	< 1000
Cn1c(=O)c2ccc(-c3cnc(NC4CCCOC4)nc3)cc2n1Cc1ccccc1OC(F)F (stereo not shown) [Example 2.21]	1000 to 10000
Cc1ccc(OC(F)F)c(Cn2c3cc(-c4cnn5c([C@@H](C)O)cnc5c4)ccc3c(=O)n2C)c1 (single isomer, unassigned) [Example 107]	< 1000
CC(=O)N1CCN(c2ncc(-c3ccc4c(=O)n(C)n(Cc5cc(C)ccc5OC(F)F)c4c3)cn2)[C@@H](C)C1 [Example 22.2]	< 1000
CC(=O)N1CCN(c2ncc(-c3ccc4c(=O)n(C)n(Cc5cc(C)ccc5OC(F)F)c4c3)cn2)CC1 [Example 22.6]	< 1000
Cn1c(=O)c2ccc(-c3cnc(N4CCOCC4)nc3)cc2n1Cc1cccc(F)c1 [Example 1.1]	1000 to 10000
Cn1c(=O)c2ccc(-c3cnc(N4CC[C@H](C(=O)O)C4)nc3)cc2n1Cc1ccccc1OC(F)F [Example 2.15]	> 10000
Cc1ccc(OC(F)F)c(Cn2c3cc(-c4cnc(N5CCN(S(C)(=O)=O)[C@H](C)C5)nc4)ccc3c(=O)n2C)c1 [Example 24, (R)-1-(2-(Difluoromethoxy)-5-methylbenzyl)-2-methyl-6-(2-(3-methyl-4-(methylsulfonyl)piperazin-1-yl)pyrimidin-5-yl)-1H-indazol-3(2H)-one]	< 1000
C[C@@H]1CN(C(=O)CO)CCN1c1ncc(-c2cc3c(cc2F)c(=O)n(C)n3Cc2ccccc2OC(F)F)cn1 [Example 126, (R)-1-(2-(Difluoromethoxy)benzyl)-5-fluoro-6-(2-(4-(2-hydroxyacetyl)-2-methylpiperazin-1-yl)pyrimidin-5-yl)-2-methyl-1H-indazol-3(2H)-one]	< 1000
Cc1ccc(OC(F)F)c(Cn2c3cc(-c4cnc(N5CCN6C(=O)NC[C@H]6C5)nc4)ccc3c(=O)n2C)c1 [Example 15.1]	< 1000
Cc1ccc(OC(F)F)c(Cn2c3cc(-c4cnc(N5CCN(C(=O)COC(=O)[C@@H](N)C(C)C)[C@H](C)C5)nc4)ccc3c(=O)n2C)c1 [Example 14.14]	< 1000
Cn1c(=O)c2ccc(-c3cnc(N[C@@H]4CCOC4)nc3)cc2n1Cc1ccccc1OC(F)F [Example 2.24]	1000 to 10000
Cn1c(=O)c2ccc(-c3cnc(N4CCN5C(=O)N(CCO)C[C@H]5C4)nc3)cc2n1Cc1ccccc1OC(F)F [Example 35, (R)-7-(5-(1-(2-(Difluoromethoxy)benzyl)-2-methyl-3-oxo-2,3-dihydro-1H-indazol-6-yl)pyrimidin-2-yl)-2-(2-hydroxyethyl)hexahydroimidazo[1,5-a]pyrazin-3(2H)-one]	< 1000
Cn1c(=O)c2ccc(-c3ccnc(OC4CCCOC4)c3)cc2n1Cc1ccccc1OC(F)F (stereo not shown) [Example 10.13]	1000 to 10000
CC(=O)N1CCN(c2ncc(-c3ccc4c(=O)n(C)n(Cc5cc(CC(C)C#N)ccc5OC(F)F)c4c3)cn2)C[C@H]1C (stereo partly shown) [Example 27.4]	1000 to 10000
CN1CC[C@H](Nc2ncc(-c3ccc4c(=O)n(C)n(Cc5cc(CO)ccc5OC(F)F)c4c3)cn2)CC1=O (single isomer, unassigned) [Example 27]	1000 to 10000
Cn1c(=O)c2ccc(-c3cnc(N4CC5(CC(C(=O)O)C5)C4)nc3)cc2n1Cc1ccccc1OC(F)F [Example 2.17]	1000 to 10000
